Our source for the IC50 values is paper PMC6058516, “Bispecific antibodies (anti-mPEG/anti-HER2) for active tumor targeting of docetaxel (DTX)-loaded mPEGylated nanocarriers to enhance the chemotherapeutic efficacy of HER2-overexpressing tumors” (Drug Delivery, 2018).

≈ marks a conversion by molar mass, not a printed value.

Assay [1] deals with MCF-7. Description: Cell viability MTT assay. It is filed as cell-based. The conditions noted are these: Homo sapiens, MCF7. How it is done:
(§1) Cell viabilities of the three BC cell lines of MCF-7, MCF-7/HER2, and SKBR-3 treated with Tynen®, the LsbMDDs, DNS-LsbMDDs, and HER2-LsbMDDs were evaluated by an MTT assay. Cells were seeded at a density of 5 × 10^4 cells per well in 24-well plates and incubated for 24 h at 37 °C with 5% CO2. Then, they were treated with different concentrations of the formulations for 4 h under the same conditions. After incubation for 48 h, 50 μL of MTT (6 mg/mL) was added to each well for 3 h. The medium was removed and 200 μL of DMSO was added to each well and gently shaken to dissolve any purple formazan crystal formations. The absorbance of each well was measured at 550 nm (BioTek, Winooski, VT).

Assay [2] relates to MCF-7/HER2. Description: Cell viability MTT assay. It is filed as cell-based. Particulars: Homo sapiens, MCF7. The procedure:
as §1

For `CC(=O)O[C@@]12CO[C@@H]1C[C@H](O)[C@@]1(C)C(=O)[C@H](O)C3=C(C)[C@@H](OC(=O)[C@H](O)[C@@H](NC(=O)OC(C)(C)C)c4ccccc4)C[C@@](O)([C@@H](OC(=O)c4ccccc4)[C@H]21)C3(C)C` [DTX, docetaxel], the IC50 in assay [1] is 0.763 µg/mL (≈ 0.944 µM); in assay [2], 0.052 µg/mL (≈ 0.0644 µM).
